From ChEMBL document CHEMBL1125977, “2-aryl-1,2-dihydro-6,7-dimethoxyquinazoline-3-oxides with positive inotropic activity” (1991)

Legend:
[1] = system: Canis familiaris; assay: Inotropic activity of compound was evaluated as % increase in cardiac force at a dose of 1.87 (mg/Kg) in anesthetized dog; type: functional, Canis lupus familiaris, Heart
[2] = system: Canis familiaris; assay: Inotropic activity of compound was evaluated as % change in mean arterial blood pressure at a dose of 1.87 (mg/Kg) in anesthetized dog; type: functional, Canis lupus familiaris
[3] = system: Canis familiaris; assay: Inotropic activity of compound was evaluated as % change in heart rate at a dose of 1.87 (mg/Kg) in anesthetized dog; type: functional, Canis lupus familiaris
[4] = system: Canis familiaris; assay: Inotropic activity of compound was evaluated as % change in heart rate at a dose of 10 (mg/Kg, intraduodenally) in anesthetized dog; type: functional, Canis lupus familiaris
[5] = system: Canis familiaris; assay: Inotropic activity of compound was evaluated as % change in mean arterial blood pressure at a dose of 8.75 (mg/Kg) in anesthetized dog; type: functional, Canis lupus familiaris
[6] = system: Canis familiaris; assay: Inotropic activity of compound was evaluated as % increase in cardiac force at a dose of 10 (mg/Kg, intraduodenally) in anesthetized dog; type: functional, Canis lupus familiaris, Heart
[7] = system: Canis familiaris; assay: Inotropic activity of compound was evaluated as % change in heart rate at a dose of 8.75 (mg/Kg) in anesthetized dog; type: functional, Canis lupus familiaris
[8] = system: Canis familiaris; assay: Inotropic activity of compound was evaluated as % increase in cardiac force at a dose of 8.75 (mg/Kg) in anesthetized dog; type: functional, Canis lupus familiaris, Heart
[9] = system: Canis familiaris; assay: Inotropic activity of compound was evaluated as % change in mean arterial blood pressure at a dose of 10 (mg/Kg, intraduodenally) in anesthetized dog; type: functional, Canis lupus familiaris
[10] = system: Canis familiaris; assay: Inotropic activity of compound was evaluated as % change in mean arterial blood pressure at a dose of 8.28 (mg/Kg) in anesthetized dog; type: functional, Canis lupus familiaris
[11] = system: Canis familiaris; assay: Inotropic activity of compound was evaluated as % increase in cardiac force at a dose of 8.28 (mg/Kg) in anesthetized dog; type: functional, Canis lupus familiaris, Heart
[12] = system: Canis familiaris; assay: Inotropic activity of compound was evaluated as % change in heart rate at a dose of 8.28 (mg/Kg) in anesthetized dog; type: functional, Canis lupus familiaris

## COc1ccc(C2Nc3cc(OC)c(OC)cc3C(C)=[N+]2[O-])cc1 (stereo not given)
[1]
  CF: 29%
[2]
  MABP: -6%
[3]
  HR: 8%

## COc1cc2c(cc1OC)C(C)=[N+]([O-])C(c1ccccc1)N2 (stereo not given)
[4]
  HR: 37%
[1]
  CF: 42%
[5]
  MABP: -28%
[6]
  CF: 157%
[7]
  HR: 47%
[8]
  CF: 137%
[2]
  MABP: -3%
[9]
  MABP: -15%
[3]
  HR: 12%

## COc1cc2c(cc1OC)C(C)=[N+]([O-])C(c1ccccn1)N2 (stereo not given)
[5]
  MABP: 0%
[7]
  HR: 16%
[8]
  CF: 45%

## COc1cc2c(cc1OC)C(C)=[N+]([O-])C(c1ccc(C)cc1)N2 (stereo not given)
[1]
  CF: 45%
[2]
  MABP: -6%
[3]
  HR: 10%

## COc1cc2c(cc1OC)C(C)=[N+]([O-])C(c1ccco1)N2 (stereo not given)
[5]
  MABP: -14%
[7]
  HR: 20%
[8]
  CF: 123%

## COc1cc2c(cc1OC)C(C)=[N+]([O-])C(c1cc3c(cc1[N+](=O)[O-])OCO3)N2 (stereo not given)
[5]
  MABP: 0%
[7]
  HR: 4%
[8]
  CF: 17%

## COc1cc2nc(-c3ccccc3)nc(C)c2cc1OC
[1]
  CF: -14%
[2]
  MABP: -20%
[3]
  HR: -4%

## COc1cc2nc(-c3ccccc3)[n+]([O-])c(C)c2cc1OC
[5]
  MABP: 0%
[7]
  HR: 5%
[8]
  CF: 29%

## COc1cc2c(cc1OC)C(C)=[N+]([O-])C(c1ccncc1)N2 (stereo not given)
[5]
  MABP: 0%
[7]
  HR: 8%
[8]
  CF: 29%

## COc1cc2c(cc1OC)C(C)=[N+]([O-])C(c1ccc3c(c1)OCO3)N2 (stereo not given)
[5]
  MABP: -38%
[7]
  HR: 39%
[8]
  CF: 124%

## COc1cc2c(cc1OC)C(C)=[N+]([O-])C(c1cccc3c1OCO3)N2 (stereo not given)
[10]
  MABP: 10%
[11]
  CF: 45%
[12]
  HR: 13%

## COc1cc2c(cc1OC)C(C)=[N+]([O-])C(c1cccs1)N2 (stereo not given)
[5]
  MABP: -31%
[7]
  HR: 21%
[8]
  CF: 75%

## COc1cc2c(cc1OC)C(C)=[N+]([O-])C(c1c(F)c(F)c(F)c(F)c1F)N2 (stereo not given)
[1]
  CF: 33%
[2]
  MABP: 2%
[3]
  HR: 8%
